Laboratory results reported in ChEMBL document CHEMBL6103570, “An endoplasmic reticulum and lipid droplets dual-localized strategy to develop small molecular photosensitizers that induce ferroptosis during photodynamic therapy” (Eur J Med Chem, 2025).
Active and inactive are the calls of the source. The rule behind the calls is not given here.

Columns and labels:
[1] = (§1) Photo selectivity index, ratio of CC50 for darktoxicity in human MDA-MB-231 cells assessed as cell viability preincubated for 24 hrs followed by incubation under dark condition for 24 hrs by MTT assay to IC50 for phototoxicity in human MDA-MB-231 cells assessed as cell viability preincubated for 24 hrs followed by white light irradiation at 20 mW/cm2 for 10 mins and measured after 24 hrs by MTT assay; assay type: toxicity, cell-based; conditions: read-out: Ratio CC50/IC50
[2] = test system: 4T1; experiment: Antitumor activity against mouse 4T1 cells implanted in mouse model assessed as reduction in tumor weight at 3 mg/kg, IG measured every two days for 15 days under 80 mW/cm2 for 15 mins by digital caliper method; assay type: functional, organism-based; conditions: time 15.0 day
[3] = test system: 4T1; experiment: Induction of ferroptosis in mouse 4T1 cells assessed as increase in MDA level at 10 nM preincubated in dark condition for 24 hrs followed by 20mW/cm2 white light irradiation for 10 mins and measured after 6 hrs by colorimetric assay; assay type: functional, cell-based; conditions: time 1810.0 min
[4] = test system: 4T1; experiment: Induction of ferroptosis in mouse 4T1 cells assessed as cell viability at 20 nM preincubated for 24 hrs followed by white light irradiation at 20 mW/cm2 and measured after 24 hrs in presence of Nec-1 by MTT assay; assay type: functional, cell-based; conditions: time 48.0 hrs
[5] = Drug localization in endoplasmic reticulum of mouse 4T1 cells assessed as increase in green fluorescence at 2 uM incubated for 12 hrs by confocal scanning microscopy analysis; assay type: ADME, subcellular; conditions: 4t1, 12 h
[6] = Darktoxicity in mouse 4T1 cells assessed as cell viability preincubated for 24 hrs followed by incubation under dark condition for 24 hrs by MTT assay; assay type: toxicity, cell-based; conditions: time 48 hrs
[7] = test system: 4T1; experiment: (§2) Induction of intracellular ROS generation in mouse 4T1 cells assessed as increase in green fluorescence intensity at 5 to 60 nM incubated in dark for 24 hrs followed by compound removal and measured after 5 mins under 20 mW/cm2H2 white light irradiation by H2-DCFDA staining based fluorescence assay; assay type: functional, cell-based; conditions: dose 5-60 nM
[8] = Toxicity in mouse assessed as effect on lung in at 3 mg/kg, IG measured after 15 days by H and E staining based analysis; assay type: organism-based; conditions: in vivo, po, 360 h, time 15 day
[9] = Phototoxicity in mouse 4T1 cells assessed as cell viability preincubated for 24 hrs followed by white light irradiation at 20 mW/cm2 for 10 mins and measured after 24 hrs by MTT assay; assay type: functional, cell-based; conditions: 4T1, light or radiation study
[10] = test system: 4T1; experiment: Induction of ferroptosis in mouse 4T1 cells assessed as cell viability at 20 nM preincubated for 24 hrs followed by white light irradiation at 20 mW/cm2 and measured after 24 hrs in presence of Z-VAD-FMK by MTT assay; assay type: functional, cell-based; conditions: time 48.0 hrs
[11] = Toxicity in mouse assessed as effect on liver in at 3 mg/kg, IG measured after 15 days by H and E staining based analysis; assay type: organism-based; conditions: in vivo, po, 360 h, time 15 day
[12] = test system: 4T1; experiment: Antitumor activity against mouse 4T1 cells implanted in mouse model assessed as infiltration of immune cells at 3 mg/kg, IG measured every two days for 15 days under 80 mW/cm2 for 15 mins by digital caliper method; assay type: functional, organism-based; conditions: time 15.0 day
[13] = Darktoxicity in human MDA-MB-231 cells assessed as cell viability preincubated for 24 hrs followed by incubation under dark condition for 24 hrs by MTT assay; assay type: toxicity, cell-based; conditions: time 48 hrs
[14] = test system: 4T1; experiment: Antitumor activity against mouse 4T1 cells implanted in mouse model assessed as reduction in tumor growth at 3 mg/kg, IG measured every two days for 15 days by digital caliper method; assay type: functional, organism-based; conditions: time 15.0 day
[15] = Toxicity in mouse assessed as effect on heart in at 3 mg/kg, IG measured after 15 days by H and E staining based analysis; assay type: organism-based; conditions: in vivo, po, 360 h, time 15 day
[16] = Phototoxicity in human Bcap37 cells assessed as cell viability preincubated for 24 hrs followed by white light irradiation at 20 mW/cm2 for 10 mins and measured after 24 hrs by MTT assay; assay type: functional, cell-based; conditions: Bcap37, light or radiation study
[17] = Photosensitizing ability of the compound in NaOH assessed as fluorescence quantum yield; assay type: functional
[18] = as §1, with “MCF7” for “MDA-MB-231”; assay type: toxicity, cell-based; conditions: read-out: Ratio CC50/IC50
[19] = test system: 4T1; experiment: as §2, with “irradiation in presence of NaN3” for “irradiation”; assay type: functional, cell-based; conditions: dose 5-60 nM
[20] = Phototoxicity in human MCF7 cells assessed as cell viability preincubated for 24 hrs followed by white light irradiation at 20 mW/cm2 for 10 mins and measured after 24 hrs by MTT assay; assay type: functional, cell-based; conditions: MCF7, light or radiation study
[21] = test system: 4T1; experiment: Induction of ferroptosis in mouse 4T1 cells assessed as decrease in intracellular GSH level at 10 nM preincubated in dark condition for 24 hrs followed by 20mW/cm2 white light irradiation for 10 mins and measured after 12 hrs by colorimetric assay; assay type: functional, cell-based; conditions: time 2170.0 min
[22] = Darktoxicity in human MCF7 cells assessed as cell viability preincubated for 24 hrs followed by incubation under dark condition for 24 hrs by MTT assay; assay type: toxicity, cell-based; conditions: time 48 hrs
[23] = Phototoxicity in human MDA-MB-231 cells assessed as cell viability preincubated for 24 hrs followed by white light irradiation at 20 mW/cm2 for 10 mins and measured after 24 hrs by MTT assay; assay type: functional, cell-based; conditions: MDA-MB-231, light or radiation study
[24] = test system: 4T1; experiment: Induction of ferroptosis in mouse 4T1 cells assessed as cell viability at 20 nM preincubated for 24 hrs followed by white light irradiation at 20 mW/cm2 and measured after 24 hrs in presence of 3-MA by MTT assay; assay type: functional, cell-based; conditions: time 48.0 hrs
[25] = test system: 4T1; experiment: Antitumor activity against mouse 4T1 cells implanted in mouse model assessed as reduction in tumor cells at 3 mg/kg, IG measured every two days for 15 days under 80 mW/cm2 for 15 mins by digital caliper method; assay type: functional, organism-based; conditions: time 15.0 day
[26] = Toxicity in mouse assessed as effect on kidney in at 3 mg/kg, IG measured after 15 days by H and E staining based analysis; assay type: organism-based; conditions: in vivo, po, 360 h, time 15 day
[27] = Drug localization in mitochondria of mouse 4T1 cells assessed as increase in green fluorescence by measuring pearson correlation coefficient at 2 uM incubated for 12 hrs by confocal scanning microscopy analysis; assay type: ADME; conditions: 4t1, 12 h
[28] = Drug localization in Lipid droplet of mouse 4T1 cells assessed as increase in green fluorescence at 2 uM incubated for 12 hrs by confocal scanning microscopy analysis; assay type: ADME, subcellular; conditions: 4t1, 12 h
[29] = Toxicity in mouse assessed as effect on spleen in at 3 mg/kg, IG measured after 15 days by H and E staining based analysis; assay type: organism-based; conditions: in vivo, po, 360 h, time 15 day
[30] = test system: 4T1; experiment: Antitumor activity against mouse 4T1 cells implanted in mouse model assessed as tumor growth inhibition at 3 mg/kg, IG measured every two days for 15 days under 80 mW/cm2 for 15 mins by digital caliper method relative to control; assay type: functional; conditions: 4T1, po, 360 h, time 15 day, read-out: TGI
[31] = as §1, with “Bcap37” for “MDA-MB-231”; assay type: toxicity, cell-based; conditions: read-out: Ratio CC50/IC50
[32] = as §1, with “mouse 4T1” for “human MDA-MB-231”; assay type: toxicity, cell-based; conditions: read-out: Ratio CC50/IC50
[33] = test system: 4T1; experiment: Induction of ferroptosis in mouse 4T1 cells assessed as cell viability at 20 nM preincubated for 24 hrs followed by white light irradiation at 20 mW/cm2 and measured after 24 hrs in presence of Fer-1 by MTT assay; assay type: functional, cell-based; conditions: time 48.0 hrs
[34] = Potency index, ratio of IC50 for Chlorin e6 to IC50 for test compound for phototoxicity in human MDA-MB-231 cells assessed as cell viability preincubated for 24 hrs followed by white light irradiation at 20 mW/cm2 for 10 mins and measured after 24 hrs by MTT assay; assay type: functional; conditions: time 48 hrs
[35] = Drug localization in Lysosome of mouse 4T1 cells assessed as increase in green fluorescence by measuring pearson correlation coefficient at 2 uM incubated for 12 hrs by confocal scanning microscopy analysis; assay type: ADME, subcellular; conditions: 4t1, 12 h
[36] = Photosensitizing ability of the compound in EtOH assessed as singlet oxygen quantum yield at 100 nM under 520nm 30 mW/cm2 light irradiation by DPBF reagent based analysis; assay type: functional
[37] = Darktoxicity in human Bcap37 cells assessed as cell viability preincubated for 24 hrs followed by incubation under dark condition for 24 hrs by MTT assay; assay type: toxicity, cell-based; conditions: time 48 hrs
[38] = Drug localization in Lipid droplet of mouse 4T1 cells assessed as increase in green fluorescence by measuring pearson correlation coefficient at 2 uM incubated for 12 hrs by confocal scanning microscopy analysis; assay type: ADME, subcellular; conditions: 4t1, 12 h
[39] = test system: 4T1; experiment: Antitumor activity against mouse 4T1 cells implanted in mouse model assessed as reduction in metastatic tumor at 3 mg/kg, IG measured every two days for 15 days by digital caliper method; assay type: functional, organism-based; conditions: time 15.0 day

With `COC(=O)c1cc2c3ccccc3n(C)c2c(C2=C3C(C)=C(I)C(C)=[N+]3[B-](F)(F)n3c(C)c(I)c(C)c32)n1` the selectivity ratio [1] was > 9960, the Activity [2] was “Active” and the Activity [3] was “Active”. The Activity [4] was “inactive”, the Drug uptake [5] was “Active” and the CC50 at 24 h [6] was > 100000 nM. The Activity [7] was “Active”, the Activity [8] was “Non-toxic” and the IC50 [9] was 19 nM. The Activity [10] was “inactive”, the Activity [11] was “Non-toxic” and the Activity [12] was “Active”. For the same compound, the CC50 at 24 h [13] was > 100000 nM, the Activity [14] was “inactive” and the Activity [15] was “Non-toxic”. For the same compound, the IC50 [16] was 11 nM, the Activity [17] was 0.22 and the selectivity ratio [18] was > 7750. The Activity [19] was “inactive”, the IC50 [20] was 13 nM and the Activity [21] was “Active”. The CC50 at 24 h [22] was > 100000 nM, the IC50 [23] was 10 nM and the Activity [24] was “inactive”. For the same compound, the Activity [25] was “Active”, the Activity [26] was “Non-toxic” and the Activity [27] was 0.49. For the same compound, the Drug uptake [28] was “Active”, the Activity [29] was “Non-toxic” and the inhibition in vivo at 3 mg/kg [30] was 67.6%. The selectivity ratio [31] was > 8830, the selectivity ratio [32] was > 5290 and the Activity [33] was “Active”. The “Ratio IC50” value [34] was 38, the Activity [35] was 0.53 and the Activity [36] was 0.78. The CC50 at 24 h [37] was > 100000 nM, the Activity [38] was 0.93 and the Activity [39] was “Active”.

In the case of `C=Cc1c(C)c2cc3nc(c(CC(=O)O)c4[nH]c(cc5nc(cc1[nH]2)C(C)=C5CC)c(C)c4C(=O)O)[C@@H](CCC(=O)O)[C@@H]3C` [CHLORIN E6], the selectivity ratio [1] is reported as > 43, the CC50 at 24 h [6] is reported as > 50000 nM and the IC50 [9] is reported as 862 nM. The CC50 at 24 h [13] was > 50000 nM, the IC50 [16] was 1270 nM and the selectivity ratio [18] was > 59. The IC50 [20] was 850 nM, the CC50 at 24 h [22] was > 50000 nM and the IC50 [23] was 1170 nM. The selectivity ratio [31] was > 39, the selectivity ratio [32] was > 58 and the CC50 at 24 h [37] was > 50000 nM.
